{
  "source": "patent US20040229268A1",
  "about": "“Method and kit for identifying antibiotic-resistant microorganisms” (priority 2003, published 2004)",
  "assay_type_in_all_cases": "binding, S. aureus",
  "key": {"[1]": {"system": "mecA gene; rRNA (pan-bacterial probe)", "assay": "Hybridization Protection Assay (HPA), AE-labeled probes, thermally lysed specimens (Examples 1-2)", "description": "The specimens were lysed by suspending approximately 5×10^8 cells in a lysis buffer (0.1% lithium lauryl sulfate, 1 mM EDTA, 20 mM lithium succinate, pH 5.5) and then incubating in a heat block set at 110° C. for 20 minutes. Thermal lysis of a variety of other specimens was effected under a range of temperature (heat block set at about 95° C. to 110° C.) and time (about 10 to 25 minutes) conditions. The lysed samples were tested for the presence of target sequences complementary to the probes using a Hybridization Protection Assay (HPA) as described by Arnold et al., in Clin. Chem. 35:1588(1989) and U.S. Pat. No. 6,004,745. 50 μl of the heat-treated suspension was incubated with an equal volume of AE-labeled probe in 2× hybridization buffer (1.2 M LiCl, 2% lithium lauryl sulfate, 20 mM EDTA, 20 mM EGTA, 100 mM lithium succinate, pH 5.5) at 60° C. for 30 minutes. The pH of succinate solutions may range from about 4.5 to about 5.5, although it is desirable to use a pH of 4.8 for succinate buffering. 300 μl of a selection reagent (0.6 M borate buffered solution, pH 8.5; note, pH may vary from 8.0 to 9.0) was added, the mixture was heated at 60° C. for 10 minutes to effect differential hydrolysis, and the samples were read in a GEN-PROBE® LEADER® luminometer using sequential 300 μl injections of 0.1% H2O2 and 1 N NaOH solutions (see Arnold et al, supra; GEN-PROBE® Detection Reagent Kit, Cat. No. 1791 may be used).\nProcedures similar to those described in Example 1 were conducted using a large number of bacterial samples, except that parallel hybridization reactions employed a pan-bacterial probe which targeted rRNA (Probe Reagent 1, GEN-PROBE® MTC-NI Kit, catalog no. 4573). […] The pan-bacterial probe reagent served as a positive control for lysis of all of the specimens. In this procedure each sample was tested against a panel of the three probes contained in separate hybridization reactions. Aliquots of the samples tested using the pan-bacterial probe reagent were diluted 1:3000 prior to performing luminometry so that results fell within the linear range of the detector. The signals indicated lysis and detection of ribosomal nucleic acids in each of the samples. These values depended on the number of bacterial cells in the specimen, as well as on the extent of cell lysis and the release or accessibility of ribosomal nucleic acids from the cells to be detected by the pan-bacterial probe."}, "[2]": {"system": "rRNA/rDNA (pan-bacterial probe); mecA target sequence", "assay": "HPA after base treatment of specimen or synthetic target (Example 3)", "description": "The effect of base treatment on a S. aureus specimen (#102) was evaluated using the pan-bacterial probe reagent. A pelleted sample of the specimen was suspended in 120 μl of lysis buffer and lysed by treatment for 20 minutes in a heat block set at 110° C. A 50 μl aliquot of the lysed specimen was treated with 50 μl of a 0.4 N LiOH solution at 55° C. for 10 minutes, and then neutralized with the addition of 50 μl of 0.4 N HCl and buffered with 50 μl of a 1× hybridization buffer (0.6 M LiCl, 1% lithium lauryl sulfate, 10 mM EDTA, 10 mM EGTA, 50 mM lithium succinate, pH 5.5). The treated sample was hybridized with the AE-labeled pan-bacterial probe by incubating at 55° C. for 1 hour. An HPA assay to detect specific probe hybrids was carried out using standard procedures that will be familiar to those having an ordinary level of skill in the art. A control sample consisted of 50 μl of the lysed specimen and volumes of hydrolysis, neutralization and buffered solutions equivalent to those of the treated sample.\nFor example, the effect of base treatment with 0.8 N LiOH for 10 minutes at 55° C. was assessed using AE-probe 1. For these treatments, an equal volume of 0.8 N LiOH was added to the sample, and the reaction mixtures were neutralized with the addition of an equivalent volume of 0.8 N HCl prior to buffering and assaying by HPA. 300 μl aliquots of each reaction mixture were read in the luminometer. These procedures employed a single-stranded DNA oligonucleotide having the same sequence that was present in the target bacteria, and that was fully complementary to the hybridization probe undergoing testing, as synthetic target."}, "[3]": {"system": "mecA gene; ribosomal nucleic acids", "assay": "HPA, base treatment with and without thermal lysis (Example 4)", "description": "The effect of base treatment with and without the heat treatment in lysis buffer was evaluated using a S. aureus specimen (GP1217, ATCC #33591). In this procedure the sample was treated with 0.8 N LiOH and thermal lysis was conducted by heat treatment for 15 minutes. Other conditions were as described above. Probe 1 labeled with acridinium ester was used in this procedure."}},
  "data": [
    {"sequence": "GGTATGTGGAAGTTAGATTGGGATCATAGCG (AE label, linker between 13 and 14, chemistry not fully specified; listed as Staphylococcus aureus) [Probe 1]", "values": [
      {"measurement": "AE-probe Average RLU", "setting": "[1]; No Specimen", "value": 431, "unit": "RLU"},
      {"measurement": "AE-probe Average RLU", "setting": "[1]; S. aureus specimen #99, mecA PCR Pos", "value": 2664, "unit": "RLU"},
      {"measurement": "AE-probe Average RLU", "setting": "[1]; S. aureus specimen #100, mecA PCR Neg", "value": 590, "unit": "RLU"},
      {"measurement": "AE-Probe Signal (RLU)", "setting": "[1]; Table 2, Negative Control", "value": 1817, "unit": "RLU"},
      {"measurement": "AE-Probe Signal (RLU)", "setting": "[1]; Table 2, specimen 10, mecA PCR Neg, pan-bacterial diluted 1:3000 prior to luminometry", "value": 2918, "unit": "RLU"},
      {"measurement": "AE-Probe Signal (RLU)", "setting": "[1]; Table 2, specimen 99, mecA PCR Pos, pan-bacterial diluted 1:3000 prior to luminometry", "value": 5822, "unit": "RLU"},
      {"measurement": "AE-Probe Signal (RLU)", "setting": "[1]; Table 2, specimen 100, mecA PCR Neg, pan-bacterial diluted 1:3000 prior to luminometry", "value": 815, "unit": "RLU"},
      {"measurement": "AE-Probe Signal (RLU)", "setting": "[1]; Table 2, specimen 101, mecA PCR Neg, pan-bacterial diluted 1:3000 prior to luminometry", "value": 2768, "unit": "RLU"},
      {"measurement": "AE-Probe Signal (RLU)", "setting": "[1]; Table 2, specimen 102, mecA PCR Pos, pan-bacterial diluted 1:3000 prior to luminometry", "value": 5623, "unit": "RLU"},
      {"measurement": "AE-Probe Signal (RLU)", "setting": "[1]; Table 2, specimen 103, mecA PCR Neg, pan-bacterial diluted 1:3000 prior to luminometry", "value": 1097, "unit": "RLU"},
      {"measurement": "AE-Probe Signal (RLU)", "setting": "[1]; Table 2, specimen 104, mecA PCR Neg, pan-bacterial diluted 1:3000 prior to luminometry", "value": 959, "unit": "RLU"},
      {"measurement": "AE-Probe Signal (RLU)", "setting": "[1]; Table 2, specimen 105, mecA PCR Neg, pan-bacterial diluted 1:3000 prior to luminometry", "value": 1086, "unit": "RLU"},
      {"measurement": "AE-Probe Signal (RLU)", "setting": "[1]; Table 2, specimen 106, mecA PCR Neg, pan-bacterial diluted 1:3000 prior to luminometry", "value": 1327, "unit": "RLU"},
      {"measurement": "AE-Probe Signal (RLU)", "setting": "[1]; Table 2, specimen 139, mecA PCR Pos, pan-bacterial diluted 1:3000 prior to luminometry", "value": 5755, "unit": "RLU"},
      {"measurement": "AE-Probe Signal (RLU)", "setting": "[1]; Table 2, specimen 140, mecA PCR Pos, pan-bacterial diluted 1:3000 prior to luminometry", "value": 3143, "unit": "RLU"},
      {"measurement": "AE-Probe Signal (RLU)", "setting": "[1]; Table 2, specimen 142, mecA PCR Pos, pan-bacterial diluted 1:3000 prior to luminometry", "value": 6845, "unit": "RLU"},
      {"measurement": "AE-Probe Signal (RLU)", "setting": "[1]; Table 2, specimen 145, mecA PCR Neg, pan-bacterial diluted 1:3000 prior to luminometry", "value": 997, "unit": "RLU"},
      {"measurement": "AE-Probe Signal (RLU)", "setting": "[1]; Table 2, specimen 148, mecA PCR Pos, pan-bacterial diluted 1:3000 prior to luminometry", "value": 10483, "unit": "RLU"},
      {"measurement": "AE-Probe Signal (RLU)", "setting": "[1]; Table 2, specimen 155, mecA PCR Neg, pan-bacterial diluted 1:3000 prior to luminometry", "value": 730, "unit": "RLU"},
      {"measurement": "AE-Probe Signal (RLU)", "setting": "[1]; Table 2, specimen 164, mecA PCR Neg, pan-bacterial diluted 1:3000 prior to luminometry", "value": 1546, "unit": "RLU"},
      {"measurement": "AE-Probe Signal (RLU)", "setting": "[1]; Table 2, specimen 178, mecA PCR Pos, pan-bacterial diluted 1:3000 prior to luminometry", "value": 7772, "unit": "RLU"},
      {"measurement": "AE-Probe Signal (RLU)", "setting": "[1]; Table 2, specimen 188, mecA PCR Pos, pan-bacterial diluted 1:3000 prior to luminometry", "value": 11856, "unit": "RLU"},
      {"measurement": "AE-Probe Signal (RLU)", "setting": "[1]; Table 2, specimen 270, mecA PCR Pos, pan-bacterial diluted 1:3000 prior to luminometry", "value": 9256, "unit": "RLU"},
      {"measurement": "AE-Probe Signal (RLU)", "setting": "[1]; Table 2, specimen 296, mecA PCR Pos, Lab Pos control, pan-bacterial diluted 1:3000 prior to luminometry", "value": 5567, "unit": "RLU"},
      {"measurement": "AE-probe 1 Signal (RLU)", "setting": "[2]; #148, Control (no base treatment)", "value": 34677, "unit": "RLU"},
      {"measurement": "AE-probe 1 Signal (RLU)", "setting": "[2]; #148, base treated (0.8 N LiOH, 10 minutes, 55° C.)", "value": 42627, "unit": "RLU"},
      {"measurement": "AE-probe 1 Signal (RLU)", "setting": "[2]; Synthetic target + #148, Control", "value": 53367, "unit": "RLU"},
      {"measurement": "AE-probe 1 Signal (RLU)", "setting": "[2]; Synthetic target + #148, base treated", "value": 58565, "unit": "RLU"},
      {"measurement": "AE-probe 1 Signal (RLU)", "setting": "[2]; Synthetic target, Control (no base treatment)", "value": 22195, "unit": "RLU"},
      {"measurement": "AE-probe 1 Signal (RLU)", "setting": "[2]; Synthetic target, base treated (0.8 N LiOH, 10 minutes, 55° C.)", "value": 21283, "unit": "RLU"},
      {"measurement": "RLU", "setting": "[3]; GP1217, Base treatment 30 minutes at 60° C.", "value": 16016, "unit": "RLU"},
      {"measurement": "RLU", "setting": "[3]; GP1217, Thermal lysis 15 minutes at 100° C. + Base treatment 15 minutes at 60° C.", "value": 38017, "unit": "RLU"},
      {"measurement": "RLU", "setting": "[3]; Table 5, Negative Control", "value": 592, "unit": "RLU"}
    ]}
  ]
}
